The source of these data is patent US10463651B2, “3-(1H-pyrrolo[3,2-C]pyridin-2-YL)-1H-indazoles and therapeutic uses thereof” (Samumed, LLC, priority 2015, dated 2019).

In general, inhibition refers to the share of the control response that was lost under treatment.

Type in all cases: cell-based
The subject of one assay is IL-6 (THP-1 cells). Nature of the assay: IL-6 inhibition in LPS-stimulated THP-1 cells (HTRF). The note with it: Homo sapiens; for EC50: IL6 by HTRF, THP-1 cells, 500 ng/mL LPS, 22 hours; for inhibition at 10 µM: THP-1, read-out: percent inhibition at 10 M. The procedure, abridged:
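THP-1 cells, pre-cultured 24 h in 1% FBS medium, treated with compound 2 h at 37 °C, then stimulated with 500 ng/mL LPS for 22 h. Secreted IL-6 measured by HTRF as the 665/620 nm ratio. Values normalized to DMSO; EC50 from four-parameter fit, duplicates.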
(In general: Time-resolved FRET reads energy transfer from a long-lived donor to a nearby acceptor.)

A further assay has as its system SW480 colon cancer cells. In words: Cell viability assay (CellTiter-Blue). The note with it: Homo sapiens; for EC50: 96 h, SW480 cell viability, four days, CellTiter-Blue; for inhibition at 10 µM: SW480, 96 h, read-out: percent inhibition at 10 μM. Put shortly: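 Fluorescence from resazurin reduced to resorufin by metabolically active cells was the read-out, taken after ~3 h with CellTiter-Blue.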

The test system of assay [1] is primary human fibroblasts derived from IPF patients (LL29 cells) treated with TGF-β1. In words: Inhibition of the fibrotic process (αSMA staining) in TGF-β1-treated fibroblasts. The note with it: Fibroblast, 96 h; for EC50: % αSMA-positive LL29 cells, TGF-β1 20 ng/mL, 4 days. The procedure, abridged:
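LL29 fibroblasts from IPF patients, 1,500 cells/well in F12 with 1% FBS, stimulated with TGF-β1; TGF-β1 plus DMSO wells as controls. Incubation 4 days, then SYTOX green 1 μM final for 30 min at room temperature. Fibrotic response read as αSMA staining.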

In assay [2] the test system is Wnt activity (Sp5-Luc reporter, SW480 colon carcinoma cells). Nature of the assay: Screening assay for Wnt activity (Sp5-Luc reporter gene assay in SW480 cells). The note with it: Homo sapiens; for EC50: Sp5-Luc reporter, SW480 cells, incubated overnight. Put shortly: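 SW480 colon carcinoma cells stably carrying Sp5 promoter (eight TCF/LEF sites)-driven firefly luciferase, plated at 4,000 cells/well in 1% FBS medium and incubated overnight at 37° C. Luminescence normalised to DMSO-only cells; EC50 from four-parameter variable-slope nonlinear regression.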

Assay [3] relates to primary human mesenchymal stem cells (hMSCs). In words: Induction of chondrogenesis in hMSCs (Rhodamine B / Nile Red nodule imaging). The note with it: for Emax: maximum activity relative to TGF-β3 (10 ng/mL) positive control, read-out: Max. Activity as % TGF-β3 activity. Put shortly:
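Primary hMSCs at passage 3-6 were treated with compound; nodule area per well was normalized to the mean of 3 DMSO wells, averaged over 2-3 replicates, and the concentration giving 50% chondrogenesis relative to TGF-β3 control, plus maximum activity and its dose, was derived.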

Turning to `CS(=O)(=O)NCc1cc(F)cc(-c2nccc3[nH]c(-c4n[nH]c5ccc(-c6cncnc6)cc45)cc23)c1` [Compound 503, N-(3-Fluoro-5-(2-(5-(pyrimidin-5-yl)-1H-indazol-3-yl)-1H-pyrrolo[3,2-c]pyridin-4-yl)benzyl)methanesulfonamide], the EC50 is 35 nM with IL-6 (THP-1 cells), over 10000 nM in the assay on SW480 colon cancer cells, over 10000 nM in assay [1] and 3080 nM in assay [2]. Further, the inhibition at 10 µM with SW480 colon cancer cells was determined as 32.7%; in assay [1] (read-out: percent inhibition at 10 μM), 15.5%. Further, in assay [3], the Emax turned out to be 40%.
`Cc1ncc(-c2ccc3[nH]nc(-c4cc5c(-c6ccncc6)nccc5[nH]4)c3c2)n1C` [Compound 573, 5-(1,2-Dimethyl-1H-imidazol-5-yl)-3-(4-(pyridin-4-yl)-1H-pyrrolo[3,2-c]pyridin-2-yl)-1H-indazole]: the inhibition at 10 µM in the assay on IL-6 (THP-1 cells) is 38.8%. For the same compound, the EC50 with IL-6 (THP-1 cells) was over 10000 nM; with SW480 colon cancer cells it was 4020 nM; in assay [1], 9980 nM; in assay [2] it was 1240 nM. The Emax in assay [3] is 36%.
With `CN1CCN(c2nccc3[nH]c(-c4n[nH]c5ccc(-c6cncc(NC(=O)CC7CCNCC7)c6)cc45)cc23)CC1` [Compound 641], the inhibition at 10 µM in the assay on IL-6 (THP-1 cells) amounted to 28.7%; in the assay on SW480 colon cancer cells, 20.9%; in assay [2] (SW480, read-out: percent inhibition at 10 μM) it was 0%. Also, the EC50 in the assay on IL-6 (THP-1 cells) was over 10000 nM; in the assay with SW480 colon cancer cells, over 10000 nM; in assay [1] it was 9900 nM; in assay [2], over 10000 nM. Moreover, in assay [3], the Emax came to 43%.
Consider `c1cc2[nH]c(-c3n[nH]c4ccc(-c5cncc(OCCN6CCCC6)c5)cc34)cc2cn1` [Compound 658, 5-(5-(2-(Pyrrolidin-1-yl)ethoxy)pyridin-3-yl)-3-(1H-pyrrolo[3,2-c]pyridin-2-yl)-1H-indazole], for which the EC50 worked out at 1160 nM in the assay with IL-6 (THP-1 cells); 552 nM in the assay with SW480 colon cancer cells; 338 nM in assay [1]; 1860 nM in assay [2]; 30 nM in assay [3] (concentration required to induce 50% levels of chondrogenesis vs TGF-β3 positive control, read-out: Conc (nM) of 50% TGF-β3 activity). The Emax in assay [3] worked out at 198%.
As for `COc1cncc(-c2ccc3[nH]nc(-c4cc5c(-c6ccsc6)nccc5[nH]4)c3c2)c1` [Compound 676, 5-(5-Methoxypyridin-3-yl)-3-(4-(thiophen-3-yl)-1H-pyrrolo[3,2-c]pyridin-2-yl)-1H-indazole], the EC50 in the assay on IL-6 (THP-1 cells) came out at 9120 nM; with SW480 colon cancer cells, 500 nM; in assay [1], 2100 nM; in assay [2] it was 808 nM. The Emax in assay [3] amounted to 39%.
As to `COc1cncc(-c2ccc3[nH]nc(-c4cc5c(-c6ccoc6)nccc5[nH]4)c3c2)c1` [Compound 692, 3-(4-(Furan-3-yl)-1H-pyrrolo[3,2-c]pyridin-2-yl)-5-(5-methoxypyridin-3-yl)-1H-indazole], the EC50 was 4530 nM in the assay with IL-6 (THP-1 cells), 227 nM in the assay with SW480 colon cancer cells, 741 nM in assay [1] and 309 nM in assay [2]. Also, in assay [3], the Emax amounted to 20%.
